Test results reported in the supplement of paper PMC10307832.

Tests used:
Assay in all cases: relative viability (nuclei count vs DMSO), 5 days (fraction); higher = more cells survive
[1] = compound: C1CNCCC1C2=CC(=NN2)C3=CC=NC=C3 + CC1(C)CCC(c2ccc(Cl)cc2)=C(CN2CCN(c3ccc(C(=O)NS(=O)(=O)c4ccc(N[C@H](CCN5CCOCC5)CSc5ccccc5)c(S(=O)(=O)C(F)(F)F)c4)cc3)CC2)C1 [Navitoclax] (partner 0.5 µM)
In short: (§1)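 The day after seeding in 1536-well plates, lung cancer cell lines were treated by pin tool with a single drug, or with a fixed anchor-drug dose together with five library-drug doses (not always all listed) in √10 steps. After 5 days, a combined fix-and-stain solution (final 0.05% Triton X-100, 1% formaldehyde, 1 ug/ml Hoechst) was added. Nuclei counted on 4× images gave relative viability as treated counts over vehicle counts, reported as the median of duplicate plates.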

[2] = compound: C1CNCCC1C2=CC(=NN2)C3=CC=NC=C3 + O=C(CCCCCCC(=O)Nc1ccccc1)NO [Vorinostat] (partner 1 µM)
In short: as §1

[3] = compound: C[C@@H](N)c1ccc(C(=O)Nc2ccnc3[nH]ccc23)cc1 + O=C(CCCCCCC(=O)Nc1ccccc1)NO [Vorinostat] (partner 1 µM)
In short: as §1

Cell Line	relative viability ([1]; first compound 0.08 µM)	relative viability ([1]; first compound 0.8 µM)	relative viability ([1]; first compound 2.53 µM)	relative viability ([1]; first compound 8 µM)	relative viability ([2]; first compound 0.08 µM)	relative viability ([2]; first compound 0.8 µM)	relative viability ([2]; first compound 2.53 µM)	relative viability ([2]; first compound 8 µM)	relative viability ([3]; first compound 0.04 µM)	relative viability ([3]; first compound 0.1265 µM)	relative viability ([3]; first compound 0.4 µM)	relative viability ([3]; first compound 1.265 µM)	relative viability ([3]; first compound 4 µM)
201T	1.25	1.15	1.2	1.18	0.954	0.955	1.02	0.949	0.909	0.886	0.981	0.891	1.24
A549	1.1	1.27	1.38	1.3	–	–	–	–	–	–	–	–	–
A-427	0.954	0.913	1.02	0.93	0.842	0.982	0.891	0.762	0.77	0.851	0.81	0.746	0.772
ABC-1	–	–	–	–	1.2	1.01	1.1	1.14	1.23	1.11	1.01	0.998	0.941
BEN	0.0512	0.0642	0.0601	0.0843	0.489	0.611	0.635	0.57	0.592	0.573	0.589	0.585	0.587
CAL-12T	1.11	1.45	1.29	1.43	0.693	0.932	0.964	0.981	0.863	0.771	0.914	0.876	0.897
COR-L23	0.905	1.3	1.1	1.03	0.455	0.56	0.631	0.447	0.51	0.486	0.479	0.417	0.212
COR-L 105	0.751	0.706	0.774	0.788	0.805	0.916	1.07	0.964	1.04	0.793	0.998	0.76	0.544
Calu-6	0.879	0.86	0.914	0.87	–	–	–	–	–	–	–	–	–
ChaGo-K-1	0.861	1.29	0.682	1.01	0.731	0.806	0.764	0.765	0.702	0.751	0.743	0.555	0.676
EBC-1	0.463	0.517	0.5	0.392	–	–	–	–	–	–	–	–	–
EKVX	1.03	0.713	1.07	0.96	0.78	0.82	0.861	0.737	0.672	0.672	0.83	0.44	0.517
EMC-BAC-2	1.11	1.37	1.25	1.14	–	0.475	0.498	0.436	0.314	0.526	0.427	0.341	0.395
EPLC-272H	1.12	1.22	1.19	1.17	0.618	0.501	0.452	0.468	0.548	0.567	0.497	0.352	0.351
H3255	0.52	0.444	0.738	0.537	0.95	–	0.995	0.937	0.89	0.816	0.886	0.655	0.715
HARA	1.13	1.14	1.17	1.2	0.669	0.62	0.527	0.481	0.521	0.646	0.604	0.403	0.26
HCC-15	0.756	0.785	0.706	0.662	0.844	0.871	0.845	0.877	0.844	0.817	0.933	0.997	0.868
HCC-44	0.931	1	1.07	0.971	1.11	1.2	0.998	1.11	1.16	1.07	1.02	1.16	0.82
HCC-78	0.729	–	0.836	0.884	0.404	–	0.441	0.475	0.533	0.425	0.622	0.706	0.618
HCC-366	1.02	1.12	1.07	1.08	0.444	0.36	0.426	0.372	0.385	0.306	0.486	0.181	0.398
HCC-827	0.972	0.995	0.991	0.876	0.698	0.861	1.03	0.912	–	0.813	1.04	0.972	0.701
HOP-62	1.06	1.21	1.13	1.03	0.606	0.635	0.733	0.6	0.715	0.541	0.602	0.179	0.555
IA-LM	0.919	0.749	0.687	0.611	0.974	1.06	0.95	1.03	1.23	0.835	1.33	1.37	1.23
LC-2-ad	0.721	0.5	0.503	0.35	0.723	0.757	0.741	0.658	0.497	0.736	0.713	0.476	0.369

Cell Line	relative viability ([1]; first compound 0.08 µM)	relative viability ([1]; first compound 0.8 µM)	relative viability ([1]; first compound 2.53 µM)	relative viability ([1]; first compound 8 µM)	relative viability ([2]; first compound 0.08 µM)	relative viability ([2]; first compound 0.8 µM)	relative viability ([2]; first compound 2.53 µM)	relative viability ([2]; first compound 8 µM)	relative viability ([3]; first compound 0.04 µM)	relative viability ([3]; first compound 0.1265 µM)	relative viability ([3]; first compound 0.4 µM)	relative viability ([3]; first compound 1.265 µM)	relative viability ([3]; first compound 4 µM)
LCLC-97TM1	0.432	0.385	0.396	0.68	0.749	0.701	0.909	0.653	0.835	0.374	0.69	0.0878	0.779
LCLC-103H	–	–	–	–	0.822	0.752	0.831	0.757	0.714	0.634	0.787	0.466	0.608
LK-2	0.674	1.25	0.843	0.87	0.304	0.26	0.363	0.126	0.198	0.275	0.222	0.17	0.302
LOU-NH91	0.653	0.762	0.866	0.703	0.925	1.02	1.05	0.955	0.754	0.791	0.885	0.625	0.725
LU99A	0.662	0.872	0.776	0.732	0.465	0.45	0.528	0.554	–	0.529	0.503	0.418	0.366
LXF-289	0.957	1.02	0.977	0.934	0.783	0.785	0.723	0.766	0.742	0.794	0.816	0.876	0.836
NCI-H23	0.711	0.908	1.09	0.948	0.656	–	0.668	0.721	0.638	0.577	0.846	–	0.658
NCI-H322M	1.22	1.19	1.24	1.18	0.95	0.854	0.99	0.953	1.21	1.04	1.11	1.05	1.39
NCI-H358	–	–	–	–	0.492	0.654	0.907	0.617	0.692	0.781	0.784	0.642	0.614
NCI-H441	–	0.915	0.836	0.704	0.593	0.944	0.783	0.77	0.946	0.827	1.03	0.739	0.835
NCI-H460	0.888	1.38	1.17	1.29	0.484	1.01	0.787	0.683	0.86	0.73	0.771	0.949	0.702
NCI-H520	1.06	1.01	1.06	1.28	0.677	0.777	0.746	0.7	0.862	0.757	0.813	0.714	0.693
NCI-H522	–	–	–	–	0.911	0.762	0.998	1.04	0.921	0.907	0.892	0.913	0.753
NCI-H596	1.01	1.07	1.02	0.958	0.73	0.417	0.638	0.589	0.596	0.517	0.583	0.654	0.582
NCI-H647	1.18	1.33	1.37	1.12	0.572	0.739	0.632	0.635	0.472	0.623	0.551	0.613	0.463
NCI-H650	–	–	–	–	0.433	0.437	0.434	0.546	–	0.507	0.325	–	0.381
NCI-H661	–	–	–	–	0.745	0.845	0.804	0.78	0.859	0.802	0.845	0.826	0.886
NCI-H727	0.411	0.459	0.623	0.67	1.25	1.08	1.29	1.18	1.6	1.22	1.52	1.57	1.49
NCI-H1299	1.09	1.04	1.02	1.09	–	–	–	–	–	–	–	–	–
NCI-H1648	–	–	–	–	0.381	0.518	–	0.488	0.623	0.81	0.754	0.952	0.899
NCI-H1703	1.08	1.59	1.15	1.35	–	–	–	–	–	–	–	–	–
NCI-H1792	0.611	0.679	0.639	0.589	–	–	–	–	–	–	–	–	–
NCI-H2342	–	–	–	–	0.706	0.71	0.774	0.809	0.772	0.744	0.704	0.869	0.731
SW 900	–	–	–	–	0.521	–	0.684	0.563	0.716	0.54	0.738	0.884	0.877
